Our source for the IC50 and Ki values is patent US11787780B2 (CORCEPT THERAPEUTICS INCORPORATED, priority 2020, dated 2023).

The target of one assay is glucocorticoid receptor (GR) recombinant ligand binding domain (LBD) (Homo sapiens (Human), UniProt P04150). Nature of the assay: GR binding fluorescence polarisation (FP) assay. To be noted: displacement of fluorescently tagged ligand. The procedure: Binding of test compounds to the glucocorticoid receptor (GR) is determined using a fluorescence polarisation (FP) assay utilising a recombinant ligand binding domain (LBD) of GR. The test compounds are assessed by their ability to displace a fluorescently tagged ligand and detection of the resulting decrease in fluorescence polarisation.
Chain of glucocorticoid receptor (GR) recombinant ligand binding domain (LBD) (P04150 524-758): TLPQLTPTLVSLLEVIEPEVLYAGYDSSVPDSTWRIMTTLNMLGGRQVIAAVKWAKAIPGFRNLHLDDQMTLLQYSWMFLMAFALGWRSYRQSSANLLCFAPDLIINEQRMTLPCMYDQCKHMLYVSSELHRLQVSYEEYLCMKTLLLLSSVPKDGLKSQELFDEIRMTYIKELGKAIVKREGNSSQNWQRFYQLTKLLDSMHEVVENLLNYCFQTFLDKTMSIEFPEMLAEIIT
As for `CC(=O)N1CCN(c2ccc3c(cnn3-c3ccc(F)cc3)c2)[C@H](C)C1` [Example 97], the IC50 is 1810 nM.
As for `CC(=O)N1CCN(c2ccc3c(cnn3-c3ccc(F)cc3)c2)C[C@H]1Cc1ccccc1` [Example 98], the IC50 turned out to be 749 nM.
`CC(=O)N1CCN(c2ccc3c(cnn3-c3ccc(F)cc3)c2)C[C@H]1CC(C)C` [Example 99]: the IC50 is 898 nM.
In the case of `Cc1cc2c(cnn2-c2ccc(F)cc2)cc1N1CCN(C(=O)Nc2ccccc2)C2(CC2)C1` [Example 102], the half-maximal inhibitory concentration (IC50) came to 267 nM.
Turning to `CCCS(=O)(=O)N1CCN(c2ccc3c(cnn3-c3ccc(F)cc3)c2)C[C@H]1C` [Example 104, (R)-1-(4-fluorophenyl)-5-(3-methyl-4-(propylsulfonyl)piperazin-1-yl)-1H-indazole], the IC50 is 270 nM.
With `CS(=O)(=O)N[C@H]1CCN(c2ccc3c(cnn3-c3ccc(F)cc3)c2)C1` [Example 105], the 50% inhibitory concentration (IC50) amounted to 320 nM.
Take `Cc1cc2c(cnn2-c2ccc(F)cc2)cc1N1CCC(NS(C)(=O)=O)CC1` [Example 106]: the IC50 is 9 nM.
In the case of `CCCn1cc(S(=O)(=O)NC2CCN(c3cc4cnn(-c5ccc(F)cc5)c4cc3C)CC2)cn1` [Example 107], the IC50 is 3 nM.
As to `Cc1cc2c(cnn2-c2ccc(F)cc2)cc1N1CC[C@H](NS(C)(=O)=O)C1` [Example 108], the IC50 is 7 nM.
Regarding `Cc1cc2c(cnn2-c2ccc(F)cc2)cc1N1CC[C@@H](NS(C)(=O)=O)C1` [Example 109], the half-maximal inhibitory concentration (IC50) amounted to 48 nM.
As to `Cc1cc2c(cnn2-c2ccc(F)cc2)cc1N1CC[C@@H](NS(=O)(=O)c2cnn(C)c2)C1` [Example 110], the half-inhibitory concentration (IC50) was 46 nM.
In the case of `Cc1cc2c(cnn2-c2ccc(F)cc2)cc1N1CC[C@H](NS(=O)(=O)c2cnn(C)c2)C1` [Example 111], the IC50 worked out at 3 nM.
For `Cc1cc2c(cnn2-c2ccc(F)cc2)cc1N1CC[C@H](N(C)S(C)(=O)=O)C1` [Example 112], the IC50 is 249 nM.
Regarding `Cc1cc2c(cnn2-c2ccc(F)cc2)cc1N1CC[C@@H](N(C)S(C)(=O)=O)C1` [Example 113], the IC50 worked out at 52 nM.
The same measure, in the same setting: the value for `Cc1cc2c(cnn2-c2ccc(F)cc2)cc1N1CC[C@H](N(C)S(=O)(=O)c2cnn(C)c2)C1` [Example 114] was 304 nM; that for `Cc1cc2c(cnn2-c2ccc(F)cc2)cc1N1CC[C@@H](N(C)S(=O)(=O)c2cnn(C)c2)C1` [Example 115] was 21 nM.
`Cc1cc2c(cnn2-c2ccc(F)cc2)cc1N1CCC(N(C)S(C)(=O)=O)CC1` [Example 116]: the concentration for half-maximal inhibition (IC50) turned out to be 72 nM.
On to `CCCn1cc(S(=O)(=O)N(C)C2CCN(c3cc4cnn(-c5ccc(F)cc5)c4cc3C)CC2)cn1` [Example 117], for which the IC50 came to 57 nM.
On to `CCCn1cc(S(=O)(=O)N(C)[C@H]2CCCN(c3cc4cnn(-c5ccc(F)cc5)c4cc3C)C2)cn1` [Example 125], for which the IC50 was 208 nM.
`Cc1cc2c(cnn2-c2ccc(F)cc2)cc1N1CCCC(N(C)S(C)(=O)=O)C1` (stereo not shown) [Example 126]: the IC50 came out at 190 nM.
On to `Cc1cc2c(cnn2-c2ccc(F)cc2)cc1N1CCCC(N(C)S(=O)(=O)c2cnn(C)c2)C1` (stereo not shown) [Example 127], for which the half-maximal inhibitory concentration (IC50) is 174 nM.
`CCCn1cc(S(=O)(=O)N(C)C2CCCN(c3cc4cnn(-c5ccc(F)cc5)c4cc3C)C2)cn1` (stereo not shown) [Example 128]: the IC50 was 590 nM.
Regarding `CS(=O)(=O)N1CCC(c2ccc3c(cnn3-c3ccc(F)cc3)c2)CC1` [Example 134], the 50% inhibitory concentration (IC50) is 3380 nM.
Turning to `CCCn1cc(S(=O)(=O)N2CCC(c3ccc4c(cnn4-c4ccc(F)cc4)c3)CC2)cn1` [Example 135], the half-maximal inhibitory concentration (IC50) amounted to 473 nM.
With `Cc1cc2c(cnn2-c2ccc(F)cc2)cc1C1CCN(S(C)(=O)=O)CC1` [Example 136], the IC50 is 102 nM.
Regarding `CCCn1cc(S(=O)(=O)N2CC=C(c3ccc4c(cnn4-c4ccc(F)cc4)c3)CC2)cn1` [Example 137], the IC50 amounted to 308 nM.
As for `Cc1cc2c(cnn2-c2ccc(F)cc2)cc1C1=CCN(S(C)(=O)=O)CC1` [Example 138], the half-inhibitory concentration (IC50) is 101 nM.
Consider `CCCn1cc(S(=O)(=O)N2CC=C(c3cc4cnn(-c5ccc(F)cc5)c4cc3C)CC2)cn1` [Example 139], for which the concentration for half-maximal inhibition (IC50) came to 218 nM.
On to `CCCn1cc(S(=O)(=O)N2CCN(c3cc4cnn(-c5ccc(F)cc5)c4cc3C)C(=O)C2)cn1` [Example 209, 1-(1-(4-fluorophenyl)-6-methyl-1H-indazol-5-yl)-4-((1-propyl-1H-pyrazol-4-yl)sulfonyl)piperazin-2-one], for which the IC50 was 3900 nM.
Consider `Cc1cc2c(cnn2-c2ccc(F)cc2)cc1C1(COCc2ccccc2)CCN(S(=O)(=O)c2cnn(C)c2)C1` (stereo not shown) [Example 341, 5-(3-((benzyloxy)methyl)-1-((1-methyl-1H-pyrazol-4-yl)sulfonyl)pyrrolidin-3-yl)-1-(4-fluorophenyl)-6-methyl-1H-indazole], for which the concentration for half-maximal inhibition (IC50) amounted to 390 nM.

Another assay deals with induction of TAT by dexamethasone in HepG2 cells. Put plainly: Hep G2 TAT assay (inhibition of dexamethasone-induced TAT). It counts as cell-based, human. To be noted: challenge of 100 nM dexamethasone, IC50 converted to Ki by Cheng and Prusoff equation. The procedure:
Glucocorticoid mediated activation of TAT occurs by transactivation of glucocorticoid response elements in the TAT promoter by glucocorticoid receptor-agonist complex. The following protocol describes an assay for measuring induction of TAT by dexamethasone in HepG2 cells (a human liver hepatocellular carcinoma cell line; ECACC, UK).
TAT activity was measured as outlined in the literature by A. Ah et al., J. Med. Chem., 2004, 47, 2441-2452.
HepG2 cells were cultured using MEME media supplemented with 10% (v/v) foetal bovine serum; 2 mM L-glutamine and 1% (v/v) NEAA at 37° C., 5%/95% (v/v) CO2/air. The HepG2 cells were counted and adjusted to yield a density of 0.125×10^6 cells/ml in RPMI 1640 without phenol red, 10% (v/v) charcoal stripped FBS, 2 mM L-glutamine and seeded at 25,000 cells/well in 200 μl into 96 well, sterile, tissue culture micro titre plates, and incubated at 37° C., 5% CO2 for 24 hours
Growth media was removed and replaced with assay media {RPMI 1640 without phenol red, 2 mM L-glutamine+10 μM forskolin}. Test compounds were screened against a challenge of 100 nM dexamethasone. Compounds were serially half log diluted in 100% (v/v) dimethylsulphoxide from a 10 mM stock.
Test compounds were pre-incubated with cells in micro-titre plates for 30 minutes at 37° C., 5/95 (v/v) CO2/air, before the addition of 100 nM dexamethasone and then subsequently for 20 hours to allow optimal TAT induction.
HepG2 cells were then lysed with 30 μl of cell lysis buffer containing a protease inhibitor cocktail for 15 minutes at 4° C. […] After 2 hours incubation at 37° C. the reaction was terminated by the addition of 15 μl of 10M aqueous potassium hydroxide solution, and the plates incubated for a further 30 minutes at 37° C. The TAT activity product was measured by absorbance at λ 340 nm.
[compound] and fitting the data to a 4 parameter logistic equation. IC50 values were converted to Ki (equilibrium dissociation constant) using the Cheng and Prusoff equation, assuming the antagonists were competitive inhibitors with respect to dexamethasone.
Molecule `Cc1cc2c(cnn2-c2ccc(F)cc2)cc1C1(Cc2ccccc2)CCN(C(=O)c2cnn(C)c2)C1` (stereo not shown) [Example 19, (3-benzyl-3-(1-(4-fluorophenyl)-6-methyl-1H-indazol-5-yl)pyrrolidin-1-yl)(1-methyl-1H-pyrazol-4-yl)methanone] had a Ki of 142 nM.
For the molecule `CCCn1cc(S(=O)(=O)N2CCC(c3cc4cnn(-c5ccc(F)cc5)c4cc3C)C(C)C2)cn1` (stereo not shown) [Example 26, 1-(4-fluorophenyl)-6-methyl-5-(3-methyl-1-((1-propyl-1H-pyrazol-4-yl)sulfonyl)piperidin-4-yl)-1H-indazole], the affinity, expressed as Ki, was 50 nM.
Turning to `CCCn1cc(S(=O)(=O)N2CCC3(c4cc5cnn(-c6ccc(F)cc6)c5cc4C)C(C2)C3(F)F)cn1` (stereo not shown) [Example 27, 5-(7,7-difluoro-3-((1-propyl-1H-pyrazol-4-yl)sulfonyl)-3-azabicyclo[4.1.0]heptan-6-yl)-1-(4-fluorophenyl)-6-methyl-1H-indazole], the Ki was determined as 759 nM.
The molecule `CCCn1cc(N(C)S(=O)(=O)C2CCN(c3cc4cnn(-c5ccc(F)cc5)c4cc3C)C2)cn1` (stereo not shown) [Example 30, 1-(1-(4-fluorophenyl)-6-methyl-1H-indazol-5-yl)-N-methyl-N-(1-propyl-1H-pyrazol-4-yl)pyrrolidine-3-sulfonamide] returned an inhibition constant (Ki) of 206 nM.
`COCCn1cc(S(=O)(=O)N2CCN(c3cc4cnn(-c5ccc(F)cc5)c4cc3C)CC23CC3)cn1` [Example 78] yielded a Ki of 70 nM. This Ki is about 2.9-fold lower than that of the molecule before.
For the molecule `Cc1cc2c(cnn2-c2ccc(F)cc2)cc1N1CCN(S(=O)(=O)c2cnn(C3CCOC3)c2)C2(CC2)C1` (stereo not shown) [Example 79], the affinity, expressed as Ki, was 84 nM.
The molecule `CCCn1cc(S(=O)(=O)N2CCN(c3cc(C)c4c(cnn4-c4ccc(F)cc4)c3)CC23CC3)cn1` [Example 80] displayed an inhibition constant (Ki) of 536 nM.
Molecule `CCCn1cc(S(=O)(=O)N2C[C@H](C)N(c3cc4cnn(-c5ccc(F)cc5)c4cc3C)C[C@@H]2C)cn1` [Example 81] had a Ki of 58 nM.
The same measure, in the same setting: with `CCCn1cc(S(=O)(=O)N2C[C@H](C)N(c3cc4cnn(-c5ccc(F)cc5)c4cc3C)C[C@H]2C)cn1` [Example 82] the figure was 65 nM.
In turn, `CCCn1cc(S(=O)(=O)N2CCN(c3cc4cnn(-c5ccc(F)cc5)c4cc3C)[C@@H](C)C2)cn1` [Example 87] came in with a Ki of 42 nM.
For the molecule `Cc1cc2c(cnn2-c2ccc(F)cc2)cc1N1C[C@@H]2CN(S(=O)(=O)c3cnn(C)c3)C[C@@H]2C1` [Example 92], the affinity, expressed as Ki, was 495 nM.
Turning to `CCCn1cc(S(=O)(=O)N2C[C@H]3CN(c4cc5cnn(-c6ccc(F)cc6)c5cc4C)C[C@H]3C2)cn1` [Example 93], the Ki stood at 216 nM.
Molecule `CCCn1cc(S(=O)(=O)N(C)[C@H]2CCN(c3cc4cnn(-c5ccc(F)cc5)c4cc3OC)C2)cn1` [Example 118] displayed a Ki of 1640 nM.
On to `CCCn1cc(S(=O)(=O)N(C)C2(C)CCN(c3cc4cnn(-c5ccc(F)cc5)c4cc3C)C2)cn1` (stereo not shown) [Example 119], for which the Ki was found to be 251 nM.
Take `CCCn1cc(S(=O)(=O)N2CCC(c3cc4cnn(-c5ccc(F)cc5)c4cc3Cl)CC2)cn1` [Example 140]: the affinity corresponds to a Ki of 50 nM.
In the case of `CCCn1cc(S(=O)(=O)N2CC=C(c3cc4cnn(-c5cccc(C(=O)NC6CCOC6)c5)c4cc3C)CC2)cn1` (stereo not shown) [Example 145], the inhibition constant (Ki) was 208 nM.
With `Cc1cc2c(cnn2-c2cccc(C(=O)NC3CCOC3)c2)cc1C1=CCN(S(C)(=O)=O)CC1` (stereo not shown) [Example 146], the affinity corresponds to a Ki of 942 nM.
`CS(=O)(=O)N1CCC(Cc2ccccc2)(c2ccc3c(cnn3-c3ccc(F)cc3)c2)C1` (stereo not shown) [Example 157] had an inhibition constant Ki of 257 nM.
Consider `Cn1cc(S(=O)(=O)N2CCC(Cc3ccccc3)(c3ccc4c(cnn4-c4ccc(F)cc4)c3)C2)cn1` (stereo not shown) [Example 158], for which the Ki was 161 nM.
